This note sets out measurements from ChEMBL document CHEMBL5724914, “Linking interpersonal differences in gut microbiota composition and drug biotransformation activity” (2024).

For data set [1] the following is noted: human gut metagenome, 24 h, 2 µM.
The conditions of data set [2]: human gut metagenome, 24 h, 2 µM. The source holds these as a separate data set.
Data set [3] is described as follows: The drug is tested on Z-026 corresponding to metagenome with ENA study accession number: PRJEB37062 and ENA sample accession number: ERS12561825 for biotransformation under anaerobic condition. The drug concentrations were measured over 9 timepoints collected between 0 and 24 hours of incubation by liquid-chromatography-coupled mass spectrometry (LC–MS). To be noted: 2 µM.

The conditions of data set [4]: human gut metagenome, 24 h, 2 µM. The source holds these as a separate data set.
For data set [5] the following is noted: human gut metagenome, 24 h, 2 µM. The source holds these as a separate data set.
A short description of data set [6]: The drug is tested on WLS-010 corresponding to human gut metagenome with ENA study accession number: PRJEB37062 and ENA sample accession number: ERS12561743 for biotransformation under anaerobic condition. The drug concentrations were measured over 9 timepoints collected between 0 and 24 hours of incubation by liquid-chromatography-coupled mass spectrometry (LC–MS). To be noted: 2 µM.

A short description of data set [7]: The drug is tested on Z-014 corresponding to rat gut metagenome with ENA study accession number: PRJEB37062 and ENA sample accession number: ERS12561814 for biotransformation under anaerobic condition. The drug concentrations were measured over 9 timepoints collected between 0 and 24 hours of incubation by liquid-chromatography-coupled mass spectrometry (LC–MS). The conditions noted are these: 2 µM.

Data set [8] in a line: The drug is tested on WLS-052 corresponding to human gut metagenome with ENA study accession number: PRJEB37062 and ENA sample accession number: ERS12561747 for biotransformation under anaerobic condition. The drug concentrations were measured over 9 timepoints collected between 0 and 24 hours of incubation by liquid-chromatography-coupled mass spectrometry (LC–MS). The conditions noted are these: 2 µM.

Data set [9] can be described thus: The drug is tested on Z-007 corresponding to rat gut metagenome with ENA study accession number: PRJEB37062 and ENA sample accession number: ERS12561807 for biotransformation under anaerobic condition. The drug concentrations were measured over 9 timepoints collected between 0 and 24 hours of incubation by liquid-chromatography-coupled mass spectrometry (LC–MS). To be noted: 2 µM.

For data set [10] the following is noted: human gut metagenome, 24 h, 2 µM. This is another data set of the same source.
The conditions of data set [11]: human gut metagenome, 24 h, 2 µM. This is another data set of the same source.
Data set [12] can be described thus: The drug is tested on WLS-077 corresponding to human gut metagenome with ENA study accession number: PRJEB37062 and ENA sample accession number: ERS12561750 for biotransformation under anaerobic condition. The drug concentrations were measured over 9 timepoints collected between 0 and 24 hours of incubation by liquid-chromatography-coupled mass spectrometry (LC–MS). To be noted: 2 µM.

The conditions of data set [13]: human gut metagenome, 24 h, 2 µM. The source holds these as a separate data set.
A short description of data set [14]: The drug is tested on WLS-370 corresponding to human gut metagenome with ENA study accession number: PRJEB37062 and ENA sample accession number: ERS12561793 for biotransformation under anaerobic condition. The drug concentrations were measured over 9 timepoints collected between 0 and 24 hours of incubation by liquid-chromatography-coupled mass spectrometry (LC–MS). The conditions noted are these: 2 µM.

The conditions of data set [15]: human gut metagenome, 24 h, 2 µM. This is another data set of the same source.
Data set [16] in a line: The drug is tested on Z-001 corresponding to mouse gut metagenome with ENA study accession number: PRJEB37062 and ENA sample accession number: ERS12561801 for biotransformation under anaerobic condition. The drug concentrations were measured over 9 timepoints collected between 0 and 24 hours of incubation by liquid-chromatography-coupled mass spectrometry (LC–MS). The conditions noted are these: 2 µM.

For data set [17] the following is noted: human gut metagenome, 24 h, 2 µM. This is another data set of the same source.
The conditions of data set [18]: human gut metagenome, 24 h, 2 µM. This is another data set of the same source.
Data set [19] in a line: The drug is tested on WLS-086 corresponding to human gut metagenome with ENA study accession number: PRJEB37062 and ENA sample accession number: ERS12561752 for biotransformation under anaerobic condition. The drug concentrations were measured over 9 timepoints collected between 0 and 24 hours of incubation by liquid-chromatography-coupled mass spectrometry (LC–MS). The conditions noted are these: 2 µM.

For data set [20] the following is noted: human gut metagenome, 24 h, 2 µM. This is another data set of the same source.
Further: call rule not given here.

`CC(C)C[C@H]1C(=O)N2CCC[C@H]2[C@]2(O)O[C@](NC(=O)[C@@H]3C=C4c5cccc6[nH]c(Br)c(c56)C[C@H]4N(C)C3)(C(C)C)C(=O)N12.CS(=O)(=O)O` [BROMOCRIPTINE MESYLATE]: the “Bacterial Biotransformation” value in data set [1], in data set [2], in data set [3], in data set [4], in data set [5] and in data set [6] was “Compound metabolized” throughout. Moreover, the “Bacterial Biotransformation” value in data set [7], in [8], in data set [9], in data set [10], in [11] and in data set [12] was “Compound metabolized” in each case. Also, the “Bacterial Biotransformation” value in [13], in [14], in data set [15] and in [16] was “Compound metabolized” each time.
`CC(NC(C)(C)C)C(=O)c1cccc(Cl)c1` (centres undefined) [BUPROPION]: the “Bacterial Biotransformation” value in data set [1], in [2], in [3], in data set [4], in data set [17] and in [5] was “Compound NOT metabolized” in each case. For the same compound, the “Bacterial Biotransformation” value in data set [18], in [7], in data set [8], in data set [19], in data set [9] and in data set [10] was “Compound NOT metabolized” throughout. The “Bacterial Biotransformation” value in [11], in data set [12], in data set [13], in data set [14], in data set [15] and in data set [16] was “Compound NOT metabolized” throughout. In [20], the “Bacterial Biotransformation” value is on record as “Compound NOT metabolized”.
On to `CN1[C@@H]2CC[C@H]1C[C@@H](OC(=O)[C@H](CO)c1ccccc1)C2` [HYOSCYAMINE], for which the “Bacterial Biotransformation” value is listed as “Compound NOT metabolized” in data set [3]; “Compound NOT metabolized” in data set [17]; “Compound metabolized” in data set [5]; “Compound NOT metabolized” in data set [18]; “Compound NOT metabolized” in data set [7]; “Compound metabolized” in data set [19]. Further, the “Bacterial Biotransformation” value in data set [9] is reported as “Compound NOT metabolized”; in [11], “Compound metabolized”; in data set [13], “Compound metabolized”; in data set [16], “Compound NOT metabolized”; in data set [20], “Compound metabolized”.
As for `COC1=C(OC)C(=O)C(CCCCCCCCCCO)=C(C)C1=O` [IDEBENONE], the “Bacterial Biotransformation” value was “Compound metabolized” in data set [1]; “Compound NOT metabolized” in data set [3]; “Compound metabolized” in data set [4]; “Compound metabolized” in data set [6]; “Compound NOT metabolized” in [18]; “Compound metabolized” in data set [7]. In addition, the “Bacterial Biotransformation” value in data set [8], in data set [9], in data set [10], in data set [11], in data set [12] and in data set [13] was “Compound metabolized” throughout. Besides, the “Bacterial Biotransformation” value is recorded as “Compound metabolized” in [14], “Compound NOT metabolized” in [16] and “Compound metabolized” in data set [20].
Take `Cc1cc2c(s1)Nc1ccccc1N=C2N1CCN(C)CC1` [OLANZAPINE]: the “Bacterial Biotransformation” value in data set [1] is “Compound NOT metabolized”; in [2] it was “Compound NOT metabolized”; in data set [3] it was “Compound NOT metabolized”; in data set [4], “Compound NOT metabolized”; in data set [17], “Compound metabolized”; in [5], “Compound NOT metabolized”. The “Bacterial Biotransformation” value in data set [6] is recorded as “Compound NOT metabolized”; in data set [7], “Compound NOT metabolized”; in [8], “Compound NOT metabolized”; in data set [9], “Compound NOT metabolized”; in data set [11], “Compound NOT metabolized”; in [12], “Compound metabolized”. Further, the “Bacterial Biotransformation” value in data set [14] is on record as “Compound NOT metabolized”; in data set [15], “Compound NOT metabolized”; in [16] it was “Compound metabolized”; in data set [20], “Compound NOT metabolized”.
Turning to `COc1cc(NC(C)CCCN)c2ncccc2c1.O=P(O)(O)O.O=P(O)(O)O` (centres undefined) [PRIMAQUINE PHOSPHATE], the “Bacterial Biotransformation” value in data set [1], in [2], in [3], in data set [4], in data set [17] and in data set [5] was “Compound NOT metabolized” in each case. The “Bacterial Biotransformation” value in data set [18], in data set [7], in data set [8], in [9], in data set [10] and in [11] was “Compound NOT metabolized” throughout. Further, the “Bacterial Biotransformation” value is “Compound NOT metabolized” in [12]; “Compound metabolized” in [13]; “Compound NOT metabolized” in [14]; “Compound NOT metabolized” in [15]; “Compound NOT metabolized” in data set [16]; “Compound metabolized” in data set [20].
Consider `CN[C@H]1CC[C@@H](c2ccc(Cl)c(Cl)c2)c2ccccc21` [SERTRALINE], for which the “Bacterial Biotransformation” value is “Compound NOT metabolized” in [1]; “Compound metabolized” in data set [2]; “Compound metabolized” in data set [3]; “Compound metabolized” in data set [4]; “Compound NOT metabolized” in [17]; “Compound NOT metabolized” in [5]. Further, the “Bacterial Biotransformation” value in [18] was “Compound NOT metabolized”; in data set [7], “Compound NOT metabolized”; in data set [8], “Compound metabolized”; in data set [19], “Compound metabolized”; in data set [9], “Compound NOT metabolized”; in data set [10], “Compound NOT metabolized”. Moreover, the “Bacterial Biotransformation” value in data set [11] was “Compound NOT metabolized”; in data set [12] it was “Compound metabolized”; in data set [13] it was “Compound metabolized”; in data set [14], “Compound metabolized”; in data set [15], “Compound NOT metabolized”; in [16], “Compound NOT metabolized”. Further, the “Bacterial Biotransformation” value in data set [20] was “Compound metabolized”.
